Data reported in patent US12186286B2 (Paracelsus Neuroscience II, LLC, priority 2019, dated 2025).
Entries after “also recorded” stand apart in the source; their conditions may differ. Where two headings read alike, the source gives them in different places.

Tests used:
[1] = test system: non-selective cation current in primary microglia; details: primary microglia stimulated with LPC; cited from earlier work
human KCa3.1 = molecular target: T1, human KCa3.1 (Homo sapiens, UniProt O15554); details: human KCa3.1 expressed in recombinant cells; read-out: In-vitro IC50 (nM)*; cited from earlier work
T1 construct: expressed in transfected cells

[2] = cited from earlier work; for free brain concentration / free plasma concentration / Cerebrospinal fluid (CSF) concentration: 10 mg/kg oral; for brain concentration / plasma concentration: 40 mg/kg i.p.
[3] = test system: primary rat cortical microglia; experiment: NO (nitrite) release from LPS-treated primary microglia; format: cell-based; details: LPS 3 EU/ml, 24 hours
Experimental: (§1) FIG. 4A and FIG. 4B. Effect of KCa3.1 inhibition on NO and IL-1β release from primary microglia. […] (B) Primary rat cortical microglia were incubated with LPS (3 EU/ml) for 24 hours to induce expression of IL-1β.
(§2) After 24 hours, media was assayed for nitrite (stable metabolite of NO). […] Primary rat cortical microglia were also treated with LPS (3 EU/ml, 3 hours) to stimulate the production of pro-IL-1β.

[4] = test system: primary rat cortical microglia; experiment: IL-1β release from primary microglia; format: cell-based
Experimental: as §1, §2

[5] = Pharmacokinetics and CNS penetration in mouse; format: in vivo
Experimental: Since experimental surgery-related inflammation is resolved seven days […] the animals are tested, it supported the hypothesis that the efficacy was mediated by inhibition of KCa3.1 on microglia in the spinal cord or brain rather than peripheral immune cells. […] Based on the rat and mouse pharmacokinetic data CNS penetrance in humans seems promising.

[6] = clinical trials; cited from earlier work
[7] = test system: cytochrome P450-dependent enzymes; details: cited from earlier work
[8] = test system: ~70 additional neuronal drug targets (50 neuronal receptors, 8 enzymes, 5 transporters and 7 ion channels); details: cited from earlier work
[9] = test system: mechanical hypersensitivity induced by peripheral nerve injury; details: rat, 10, 30 and 100 mg/kg p.o., only the highest dose significant; cited from earlier work
locomotor activity = details: rat, doses required for efficacy in the chronic constriction injury model; cited from earlier work
[10] = clinical trials, healthy volunteers and sickle cell patients; cited from earlier work
sickle cell disease [11] = details: Phase 2, 10 mg/day, sickle cell patients; cited from earlier work
sickle cell disease [12] = details: Phase 3, sickle cell patients, cited from earlier work
[13] = primates; cited from earlier work
human CYP2B6 = molecular target: T2, human CYP2B6 (Homo sapiens, UniProt P20813); details: cited from earlier work
T2 sequence (P20813 1-491): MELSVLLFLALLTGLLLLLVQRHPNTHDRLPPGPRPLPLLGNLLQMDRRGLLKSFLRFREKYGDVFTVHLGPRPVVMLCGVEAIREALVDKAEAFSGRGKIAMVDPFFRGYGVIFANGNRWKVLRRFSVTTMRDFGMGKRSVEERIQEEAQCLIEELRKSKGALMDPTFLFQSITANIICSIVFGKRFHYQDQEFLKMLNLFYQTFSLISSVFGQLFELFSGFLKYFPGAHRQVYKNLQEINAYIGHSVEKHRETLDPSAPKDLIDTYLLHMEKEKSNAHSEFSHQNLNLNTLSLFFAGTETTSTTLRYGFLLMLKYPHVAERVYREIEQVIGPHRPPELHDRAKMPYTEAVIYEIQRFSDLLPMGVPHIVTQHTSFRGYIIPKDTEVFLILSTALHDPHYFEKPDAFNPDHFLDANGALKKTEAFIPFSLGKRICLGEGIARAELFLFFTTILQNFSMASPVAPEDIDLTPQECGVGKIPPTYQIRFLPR

human CYP2C19 = human CYP2C19 (Homo sapiens, UniProt P33261); details: cited from earlier work
human CYP2C19, sequence (P33261 whole entry): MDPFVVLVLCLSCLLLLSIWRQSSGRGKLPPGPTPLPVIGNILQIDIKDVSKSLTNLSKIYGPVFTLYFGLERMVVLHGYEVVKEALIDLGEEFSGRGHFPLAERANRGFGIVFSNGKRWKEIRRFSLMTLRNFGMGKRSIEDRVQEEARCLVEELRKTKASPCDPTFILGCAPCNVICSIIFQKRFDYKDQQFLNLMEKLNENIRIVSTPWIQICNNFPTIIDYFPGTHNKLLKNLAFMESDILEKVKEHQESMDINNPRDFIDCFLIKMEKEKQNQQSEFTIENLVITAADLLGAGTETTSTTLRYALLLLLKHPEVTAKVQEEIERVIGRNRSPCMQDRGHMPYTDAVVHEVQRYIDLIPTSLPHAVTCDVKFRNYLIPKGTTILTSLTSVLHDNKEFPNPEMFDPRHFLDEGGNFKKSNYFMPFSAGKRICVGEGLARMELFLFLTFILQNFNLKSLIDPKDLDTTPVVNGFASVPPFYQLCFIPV

human CYP3A4 = human CYP3A4 (Homo sapiens, UniProt P08684); details: cited from earlier work
human CYP3A4, sequence (P08684 whole entry): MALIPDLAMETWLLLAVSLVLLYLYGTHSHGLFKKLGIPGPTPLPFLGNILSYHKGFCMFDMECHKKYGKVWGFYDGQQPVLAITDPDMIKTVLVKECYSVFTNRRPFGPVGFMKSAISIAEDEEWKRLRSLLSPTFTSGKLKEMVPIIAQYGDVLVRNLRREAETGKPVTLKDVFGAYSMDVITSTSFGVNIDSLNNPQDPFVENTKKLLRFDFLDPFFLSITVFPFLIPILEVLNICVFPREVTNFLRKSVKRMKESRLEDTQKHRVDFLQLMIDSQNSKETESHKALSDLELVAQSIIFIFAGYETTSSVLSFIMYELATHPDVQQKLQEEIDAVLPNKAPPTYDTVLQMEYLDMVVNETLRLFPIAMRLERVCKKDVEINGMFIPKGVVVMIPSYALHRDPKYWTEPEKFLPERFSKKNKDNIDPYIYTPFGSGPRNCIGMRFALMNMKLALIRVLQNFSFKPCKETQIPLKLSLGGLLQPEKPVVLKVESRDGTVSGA

ischemic stroke = details: rat, cited from earlier work

Compound: charybdotoxin
- effect on LPC signals [1]: no effect

Compound: O=C1CSc2ccccc2N1Cc1cccc(C(F)(F)F)c1 [NS6180, 4-[[3-(trifluoromethyl)phenyl]methyl]-2H-1,4-benzothiazin-3(4H)-one]
- IC50 (human KCa3.1): 9.4 nM
- Cmax-Total (nM) Plasma ([2]; rat, 10 mg/kg p.o.): 186 nM
- T½ ([2]; rat, 10 mg/kg p.o.): 3.8 h

Compound: NC(=O)C(c1ccccc1)(c1ccc(F)cc1)c1ccc(F)cc1 [Senicapoc, senicapoc]
- IC50 ([3]; average): 39 nM
- EC50 ([3]; representative experiment (n=3), read-out: EC50, production of NO (nitrite)): 0.9 nM
- IC50 ([4]; LPS 3 EU/ml 3 hours, then BzATP 1 mM): 15 nM
- IC50 ([4]; figure legend: LPS 3 EU/ml for 24 hours (n=3)): 1.3 nM
- brain versus plasma levels [5]: higher levels in brain than plasma
- Cmax-Total (nM) Plasma ([5]; 10 mg/kg p.o., plasma): 709 nM
- fraction unbound ([5]; brain, read-out: % unbound Brain): 0.008
- Tmax ([5]; in vivo, po, 10 mg/kg p.o.): 0.33 h
- half-life ([5]; in vivo, po, 10 mg/kg p.o., read-out: T½ (converted)): 3.1 h
- fraction unbound ([5]; plasma, read-out: % unbound Plasma): 0.015
- free brain concentration ([2]; rat, four hours post-dose): 136 nM
- free plasma concentration ([2]; rat, four hours post-dose): 65 nM
- Cerebrospinal fluid (CSF) concentration ([2]; rat, four hours post-dosing): 121 nM
- free brain concentration ([2]; rat, one hour post-dose): 37 nM
- free plasma concentration ([2]; rat, one hour post-dose): 17 nM
- Cerebrospinal fluid (CSF) concentration ([2]; rat, one hour post-dosing): 25 nM
- Cmax-Unbound (nM) CSF ([2]; rat, 10 mg/kg p.o., CSF): 121 nM
- Cmax-Total (nM) Brain ([2]; rat, 10 mg/kg p.o.): 17,000 nM
- Cmax-Unbound (nM) Brain ([2]; rat, 10 mg/kg p.o.): 136 nM
- Cmax-Total (nM) Plasma ([2]; rat, 10 mg/kg p.o.): 2,400 nM
- Cmax-Unbound (nM) Plasma ([2]; rat, 10 mg/kg p.o.): 65 nM
- T½ ([2]; rat, 10 mg/kg p.o.): 1 h
- % unbound Plasma ([2]; rat): 2.7%
- blood-brain barrier crossing ([2]; rat): cross the blood-brain barrier
- t1/2 in humans [6]: 552 h
- effect on cytochrome P450-dependent enzymes [7]: does not suffer from metabolic instability or effects on cytochrome P450
- inhibition of ~70 additional neuronal drug targets ([8]; 1 μM): None of the targets tested was inhibited
- off target effects ([8]; at concentrations that block KCa3.1): no known off target effects
- mechanical hypersensitivity [9]: attenuated
- locomotor activity (locomotor activity): did not observe any significant impact; also recorded: did not alter activity
- tolerability / side effects in humans [10]: without any significant side effects; also recorded: well tolerated; also recorded: safe and has a low incidence of side effects
- hematocrit and hemoglobin levels (sickle cell disease [11]): significantly increased
- hemolysis (sickle cell disease [11]): reduced
- pain outcome measures (vaso-occlusive / painful crises) (sickle cell disease [12]): no improvement
- pain outcome measures (vaso-occlusive / painful crises) (sickle cell disease [12]; listed as senicapoc): no effect

Compound: Clc1ccccc1C(c1ccccc1)(c1ccccc1)n1cccn1 [TRAM-34]
- Cmax-Total (nM) Brain ([2]; rat, 10 mg/kg p.o.): ~2500 nM
- Cmax-Unbound (nM) Brain ([2]; rat, 10 mg/kg p.o.): 50 nM
- Cmax-Total (nM) Plasma ([2]; rat, 10 mg/kg p.o.): ~2500 nM
- Cmax-Unbound (nM) Plasma ([2]; rat, 10 mg/kg p.o.): 50 nM
- Tmax ([2]; rat, 10 mg/kg p.o.): 0.5 to 1 h
- T½ ([2]; rat, 10 mg/kg p.o.): ~2 h
- brain concentration ([2]; rat, 8 hours): ~1000 nM
- plasma concentration ([2]; rat, 8 hours): ~1000 nM
- brain concentration ([2]; rat, 12 hours): 400 nM
- plasma concentration ([2]; rat, 12 hours): 400 nM
- % unbound Plasma ([2]; rat): 2%
- % unbound in plasma ([2]; rat): approximately 2%
- half-life ([2]; rats): ~2 h
- half-life [13]: ~2 h
- effect on cytochrome P450-dependent enzymes [7]: no effect
- IC50, CYP2B6 (human CYP2B6): low micromolar range
- IC50, CYP2C19 (human CYP2C19): low micromolar range
- IC50, CYP3A4 (human CYP3A4): low micromolar range
- neuronal loss (ischemic stroke; 10 and 40 mg/kg i.p.): significantly attenuated
- post stroke infarct volume (ischemic stroke; 10 and 40 mg/kg i.p.): significantly attenuated
- outcome when given 12 hours after the ischemic insult (ischemic stroke; given 12 hours after insult): improved the outcome
- extent of microglial ED1 staining (ischemic stroke): significantly reduced
- neurological deficit score (ischemic stroke): improved
